Assay results as given in patent publication US7491849B2, “Oligoamine compounds and derivatives thereof for cancer therapy” (priority 2001, dated 2009).

How the values were obtained:
[1] = system: DU-145 human prostate tumor xenografts; test: Subcutaneous DU-145 prostate tumor xenograft in mice; assay type: in vivo, male NCr-nu mice; conditions: for Days Delay (T-C) / Non-Specific Deaths/Total / Tumor Free Survival/Total / Tumor Regression, Number of Complete / Tumor Regression, Number of Partial / Days to 4 Doublings / % T/C, Day 21 (median tumor weight) / % T/C, Day 35 (median tumor weight) / median tumor growth delay [(T-C)/C x 100] / tolerability / deaths: 6.25 mg/kg IV; for Days Delay (T-C) / Non-Specific Deaths/Total / Tumor Free Survival/Total / Tumor Regression, Number of Complete / Tumor Regression, Number of Partial / Days to 4 Doublings / % T/C, Day 21 (median tumor weight) / % T/C, Day 35 (median tumor weight): Q1D x 5 day 14, 28; for Days to 4 Doublings: control 17.1; for % T/C, Day 21 (median tumor weight): three days after first round; for % T/C, Day 35 (median tumor weight): three days after second round; for median tumor growth delay [(T-C)/C x 100]: two rounds, statistically significant; for antitumor activity (summary): at a dosage which was well tolerated (6.25 mg/kg IV)
Protocol: Response of implanted sc DU-145 prostate tumors to treatment with SL-11159 and SL-11226. This experiment evaluates the antitumor efficacy of SLIL Biomedical Corporation compounds (SL-11159, SL-11226) against subcutaneously-implanted DU-145 human prostate tumor xenografts in male NCr-nu (line 3A10F17T1) mice. All compounds were tested at a single dose level when administered intravenously (iv), at 6.25 mg/kg. Both SL-11159 and SL-11226 were prepared in water for injection (soluble); the injection volume was 0.1 mL/10 g body weight.
All compounds were administered for two rounds of five daily treatments with a nine-day rest period between the rounds. The control group was treated with vehicle (water for injection) for two rounds on a Q1D×5 schedule. There were sixteen mice in the control group and eight mice in each of the treatment groups. All treatments were initiated on day 14 postimplant when all mice had established tumors ranging in size from 75 to 198 mg. The experiment was terminated on day 53 after tumor implantation. The individual animal's time to reach the evaluation size (time to reach four doublings) was used in the calculations of the median tumor growth delay [(T−C)/C×100, %] and as the endpoint in a life tables analysis (stratified Kaplan-Meier estimation followed by the Mantel-Haenszel log-rank test) in order to statistically compare the growth data between groups (see Table 5; group 1 is the control group, group 2 was treated with SL-11159, group 3 was treated with SL-11226).
The time required for a tumor to double in mass is calculated based on the initial tumor weight at the beginning of the treatment period. When the initial tumor weight has been selected, tumor weights are then examined, beginning with the last recorded value, until a doubling is calculated. Examination from the last recorded value is to ensure that the doubling time is calculated during the final phase of tumor growth and not prior to a tumor regression. Values between measurements are calculated by exponential […], and a value may be estimated after the final measured weight provided the extrapolated value occurs prior to the animal's death.)
Control tumors grew well in fourteen out of sixteen mice. There was one xenograft failure (no-take). One animal died during the second round of the vehicle treatment, on day 29, with a tumor weight of 770 mg. Tumors reached the evaluation size of four mass doublings in 17.1 days, which covers the period of the first round of treatment and three days of the second round of treatment. The effect of each round of treatment was evaluated by the comparison of the median tumor weight of the treated groups on days 21 or 35 (three days after the end of the first or the second round of treatment, respectively) to the median tumor weight of the control group on the same day (T/C×100%, see Table 4A).
Tumor regression was scored (excluding nonspecific deaths), according to the smallest tumor size attained after the beginning of treatment relative to the size at first treatment: • partial: <50 percent of its size at 1 st rx, but not complete. • complete: tumor becomes unpalpable.
Duration of regression: the interval during which a tumor classified as a partial or complete regressor was below 50 percent of its size at first treatment.
Evaluation size: this value is the tumor mass selected at four mass doublings beginning with the initial tumor size at the start of treatment.
T−C (days): the difference in the median of times postimplant for tumors of the treated groups to attain an evaluation size compared to the median of the control group.

LnCap = test: MTT assay, tumor cell growth, LnCap; assay type: cell-based; conditions: 6 days incubation, read-out: ID50 (μM) values for Human Tumor Cell Lines, LnCap
Protocol: (§1) Effect of Saturated Oligoamines on Human Prostate Tumor Cell Growth by the MTT assay. Saturated oligoamines inhibited prostate cancer cell growth in vitro. DU-145 cells were most sensitive and PC-3 cells were less sensitive to the effects of oligoamines. In general, ID50 values of less than 0.5 μM were obtained (Table 2). Even though the PC-3 cells were relatively more resistant to the oligoamines, at a 5 μM concentration the oligoamines reduced the cell number to less than 1% of the control on day 6 of incubation. Tissue cultures and the MTT assay were performed as follows.
(§2) Tissue Culture. Cells were seeded into 75 cm^2 culture flasks with 15 ml of Eagle's minimal essential medium supplemented with 10% fetal calf serum and nonessential amino acids. The flasks were incubated in a humidified 95% air/5% CO2 atmosphere. The cells were grown for at least 24 h to ensure that they are in the log phase of growth and then they were treated with the oligoamines. Cells were harvested by treatment for 5 min with STV (saline A, 0.05% trypsin, 0.02% EDTA) at 37° C. The flasks were rapped on the lab bench, pipetted several times and aliquots of cell suspension were withdrawn and counted using a Coulter particle counter that has been standardized for counting each cell line using a hemacytometer.
(§3) MTT Assay: Trypsinized cell suspensions were diluted to seed 80 μl suspensions containing 500 cells in each well of a 96 well Corning microtiter plate and incubated overnight at 37° C. in a humidified incubator in 5% CO2. 20 μl of appropriately diluted stock solution of each drug were added to the middle 8 columns of cell suspension in the microtiter plates. Each drug concentration was run in quadruplicate. Outer columns of the plates were used for buffer controls. Cells were incubated with the drug for 6 days at 37° C. in 5% CO2/H2O atmosphere. 25 μl of 5 mg/ml solution of 3-(4,5-dimethylthiazol-2-yl)-2,5-diphenyl tetrazolium bromide (MTT) were added to each well and incubated for 4 hours at 37° C. in 5% CO2/H2O incubator. Cells were lysed by incubating overnight with 100 μl lysis buffer (500 ml of the lysis buffer contains: 100 g lauryl sulfate (SDS), 250 ml of N,N-dimethylformamide, and 2 ml of glacial acetic acid, made up to volume with water; pH 4.8).
(§4) The color was monitored at room temperature at 570 nm in a E-max Precision Microplate Reader (Molecular Devices Corporation, Sunnyvale, Calif.) and data was analyzed using cell survival software supplied by Molecular Devices Corporation.

PC-3 = test: MTT assay, tumor cell growth, PC-3; assay type: cell-based; conditions: 6 days incubation, read-out: ID50 (μM) values for Human Tumor Cell Lines, PC-3
Protocol: as §1, §2, §3, §4

SMILES	Days Delay (T-C) [1] [days]	Non-Specific Deaths/Total [1]	Tumor Free Survival/Total [1]	Tumor Regression, Number of Complete [1]	Tumor Regression, Number of Partial [1]	Days to 4 Doublings [1] [days]	% T/C, Day 21 (median tumor weight) [1] [%]	% T/C, Day 35 (median tumor weight) [1] [%]	median tumor growth delay [(T-C)/C x 100] [1] [%]	antitumor activity (summary) [1]	tolerability / deaths ([1]; first round of treatment)	tolerability / deaths ([1]; second round of treatment)	IC50 (LnCap) [µM]	IC50 (PC-3) [µM]	tolerability / deaths ([1]; whole treatment (two rounds))
CCNCCCCNCCCCNCCCCNCCCCNCCCCNCCCCNCCCCNCCCCNCCCCNCC.Cl.Cl.Cl.Cl.Cl.Cl.Cl.Cl.Cl.Cl [SL-11159]	>6.9	1/8	0/8	0	0	>24.0	65	63	> 40	measurable antitumor activity	well tolerated without deaths	death of one animal	0.25	0.6	
CCNCCCCNCCCCNCCCCNCCCCNCCCCNCCCCNCCCCNCCCCNCCCCNCCCCNCCCCNCC.Cl.Cl.Cl.Cl.Cl.Cl.Cl.Cl.Cl.Cl.Cl.Cl [SL-11226]	>6.4	0/8	0/8	0	0	>23.5	46	61	> 37	measurable antitumor activity			0.15	0.14	well tolerated without deaths
